These results are taken from US7772183B2 (Bristol-Myers Squibb Company, priority 2005, dated 2010).

This experiment addresses T1, HCV NS3/4A protease complex, BMS strain (UniProt P27958, species not given/STRAIN_BMS).
T1 construct: said of H77 and J4L6S; fused on or other part: A three-lysine solubilising tail at the C-terminus of NS4A and a His tag (pET21b, Ni-NTA purification)
Put plainly: FRET peptide assay to monitor HCV NS3/4A proteolytic activity (BMS strain). Type of experiment: biochemical, Hepatitis C virus (genotype 1a). The essentials: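 Recombinant NS3/4A complexes (aa 1027–1711) from H77 (1a) and J4L6S (1b) carried a three-lysine tail, C1711G and C1454S. They were expressed in E. coli BL21(DE3) (0.5 mM IPTG, 22 h, 20 °C), then purified by Ni-NTA and Superdex-S200 to >90% purity. The BMS strain was a genotype 1a clone from patient serum.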

Read-outs that look alike come from different tables or passages of the source. A value given as a limit tells only on which side of the number the result lay.

T1 sequence (P27958 1027-1657, change not shown, one chain of several): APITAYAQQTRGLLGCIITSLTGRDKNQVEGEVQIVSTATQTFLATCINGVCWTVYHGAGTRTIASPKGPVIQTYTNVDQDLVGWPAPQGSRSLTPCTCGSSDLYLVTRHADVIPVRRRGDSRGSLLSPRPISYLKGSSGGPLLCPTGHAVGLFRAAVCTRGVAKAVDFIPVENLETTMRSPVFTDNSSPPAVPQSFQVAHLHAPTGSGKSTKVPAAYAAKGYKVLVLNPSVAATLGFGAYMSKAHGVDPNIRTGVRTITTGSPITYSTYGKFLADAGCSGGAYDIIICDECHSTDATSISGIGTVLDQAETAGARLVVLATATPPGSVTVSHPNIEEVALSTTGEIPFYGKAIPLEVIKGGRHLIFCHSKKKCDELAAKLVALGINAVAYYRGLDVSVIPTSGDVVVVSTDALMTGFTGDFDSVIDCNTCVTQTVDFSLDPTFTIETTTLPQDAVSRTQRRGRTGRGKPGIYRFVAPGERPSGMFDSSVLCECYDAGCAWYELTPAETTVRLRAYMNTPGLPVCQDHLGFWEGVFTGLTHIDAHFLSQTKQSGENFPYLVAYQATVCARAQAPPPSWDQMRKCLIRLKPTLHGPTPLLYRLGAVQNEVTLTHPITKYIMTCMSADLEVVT

Take `CC(C)(C)OC(=O)N[C@H]1CCCCC/C=C\[C@@H]2C[C@@]2(C(=O)NS(=O)(=O)C2CC2)NC(=O)[C@@H]2C[C@@H](OC(=O)c3ccc(C#N)cc3)CN2C1=O` [Compound 26, 18-(4-cyanobenzoyloxy)-14-tert-butoxycarbonylamino-4-cyclopropylsulfonylaminocarbonyl-2,15-dioxo-3,16-diazatricyclo-[14.3.0.0^4,6]-nonadec-7-ene]: the IC50 reads like this: (BMS strain, read-out: IC50 against the NS3/4A BMS strain in the enzyme assay) 0.78 nM; (NS3/4A BMS strain, read-out: IC50 Range) below 100 nM.
